Measurements taken from publication PMC6039382 (Journal of Cardiovascular Pharmacology, 2018).
Positions count from the first letter of the chain named. Entries after “also recorded” stand apart in the source; their conditions may differ. One block for each compound: values may come before it.

Key:
PPAR-γ = PPAR-γ agonist transactivation, statements made jointly for all species; format: cell-based, human, mouse, rat
PPAR-α = conditions: cited from earlier work
human PPAR-α = biological target: T1, human PPAR-α (Homo sapiens, UniProt Q07869); experiment: PPAR-α agonist transactivation assay, Gal4-LBD luciferase reporter cells; format: cell-based
T1 sequence (Q07869 239-466 limits assumed): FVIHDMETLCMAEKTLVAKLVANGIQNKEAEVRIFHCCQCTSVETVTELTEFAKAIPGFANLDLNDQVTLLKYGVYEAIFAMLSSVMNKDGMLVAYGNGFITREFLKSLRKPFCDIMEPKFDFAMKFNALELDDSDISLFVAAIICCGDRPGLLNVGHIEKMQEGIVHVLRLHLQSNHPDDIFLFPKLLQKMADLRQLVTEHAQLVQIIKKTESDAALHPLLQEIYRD

mouse PPAR-α = biological target: T2, mouse PPAR-α (Mus musculus, UniProt P23204); experiment: as above; format: cell-based; conditions: gemcabene up to 300 μM
T2 sequence (P23204 239-466 limits assumed): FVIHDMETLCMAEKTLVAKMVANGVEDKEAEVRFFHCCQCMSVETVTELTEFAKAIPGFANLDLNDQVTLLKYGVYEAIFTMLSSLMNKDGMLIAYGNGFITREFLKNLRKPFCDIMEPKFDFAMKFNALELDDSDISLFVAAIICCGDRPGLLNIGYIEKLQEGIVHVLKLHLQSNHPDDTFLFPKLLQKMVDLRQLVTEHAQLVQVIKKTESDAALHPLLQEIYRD

rat PPAR-α = biological target: T3, rat PPAR-α (Rattus norvegicus, UniProt P37230); experiment: as above; format: cell-based; conditions: gemcabene up to 300 μM
T3 sequence (P37230 239-466 limits assumed): T2 sequence (P23204 239-466 limits assumed) with D27N

human PPAR-γ = biological target: T4, human PPAR-γ (Homo sapiens, UniProt P37231); experiment: PPAR-γ agonist transactivation assay, Gal4-LBD luciferase reporter cells
T4 sequence (P37231 238-503 limits assumed): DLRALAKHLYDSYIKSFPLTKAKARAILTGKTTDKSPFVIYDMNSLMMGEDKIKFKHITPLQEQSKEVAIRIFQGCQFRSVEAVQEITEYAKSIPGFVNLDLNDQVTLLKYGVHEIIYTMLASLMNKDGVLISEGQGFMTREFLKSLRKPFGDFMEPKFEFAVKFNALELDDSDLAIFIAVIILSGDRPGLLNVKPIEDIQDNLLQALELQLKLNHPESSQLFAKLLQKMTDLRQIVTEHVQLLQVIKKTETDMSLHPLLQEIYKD

SMILES: CN(CCOc1ccc(CC2SC(=O)NC2=O)cc1)c1ccccn1 (centres unmarked) [Rosiglitazone]
Comments / agonist activity in words (PPAR-γ): strong activation; also recorded: potent agonist activity

SMILES: Cc1ccc(C)c(OCCCC(C)(C)C(=O)O)c1 [Gemfibrozil]
IC50/EC50 [Literature] (PPAR-α): 193 µM

maximal activation (human PPAR-α): 19 fold | agonist activity (in words) (human PPAR-α; gemcabene up to 300 μM): agonist activity | agonist activity (in words) (mouse PPAR-α): not against mouse and rat PPAR-α | agonist activity (in words) (rat PPAR-α): not against mouse and rat PPAR-α | agonist activity (in words) (human PPAR-γ): agonist activity | activation (human PPAR-γ; maximal): 16 fold
SMILES: COc1ccc(OC(=O)N(CC(=O)O)Cc2ccc(OCCc3nc(-c4ccccc4)oc3C)cc2)cc1 [Muraglitazar]
